According to ChEMBL document CHEMBL1649508, “Emergence of quinolone-resistant Bordetella pertussis in Japan” (2009):
Values after ≈ are worked out from the molar mass of the structure shown.

What follows are compounds tested on Bordetella pertussis (assay: Antibacterial activity against quinolone-susceptible Bordetella pertussis BP128 by Etest method).
Type: functional

Compound	MIC
O=C(N[C@H](CO)[C@H](O)c1ccc([N+](=O)[O-])cc1)C(Cl)Cl [CHLORAMPHENICOL]	0.25 µg/mL (≈ 0.774 µM)
C[C@@H]1CN(c2c(F)c(N)c3c(=O)c(C(=O)O)cn(C4CC4)c3c2F)C[C@H](C)N1 [SPARFLOXACIN]	0.008 µg/mL (≈ 0.0204 µM)

What follows are compounds tested on Bordetella pertussis (assay: Antibacterial activity against quinolone-susceptible Bordetella pertussis BP109 by Etest method).
Type: functional

Compound	MIC
O=C(N[C@H](CO)[C@H](O)c1ccc([N+](=O)[O-])cc1)C(Cl)Cl [CHLORAMPHENICOL]	0.125 µg/mL (≈ 0.387 µM)
C[C@@H]1CN(c2c(F)c(N)c3c(=O)c(C(=O)O)cn(C4CC4)c3c2F)C[C@H](C)N1 [SPARFLOXACIN]	0.004 µg/mL (≈ 0.0102 µM)

The compounds below were run on Bordetella pertussis (assay: Antibacterial activity against quinolone-susceptible Bordetella pertussis BP115 by Etest method).
Type: functional

Compound	MIC
O=C(N[C@H](CO)[C@H](O)c1ccc([N+](=O)[O-])cc1)C(Cl)Cl [CHLORAMPHENICOL]	0.5 µg/mL (≈ 1.55 µM)
C[C@@H]1CN(c2c(F)c(N)c3c(=O)c(C(=O)O)cn(C4CC4)c3c2F)C[C@H](C)N1 [SPARFLOXACIN]	0.004 µg/mL (≈ 0.0102 µM)

What follows are compounds tested on Bordetella pertussis (assay: Antibacterial activity against quinolone-susceptible Bordetella pertussis BP111 by Etest method).
Type: functional

Compound	MIC
O=C(N[C@H](CO)[C@H](O)c1ccc([N+](=O)[O-])cc1)C(Cl)Cl [CHLORAMPHENICOL]	0.25 µg/mL (≈ 0.774 µM)
C[C@@H]1CN(c2c(F)c(N)c3c(=O)c(C(=O)O)cn(C4CC4)c3c2F)C[C@H](C)N1 [SPARFLOXACIN]	0.008 µg/mL (≈ 0.0204 µM)

The compounds below were run on Bordetella pertussis (assay: Antibacterial activity against […] Bordetella pertussis BP118 by Etest method).
Type: functional

Compound	MIC
O=C(N[C@H](CO)[C@H](O)c1ccc([N+](=O)[O-])cc1)C(Cl)Cl [CHLORAMPHENICOL]	0.5 µg/mL (≈ 1.55 µM)
C[C@@H]1CN(c2c(F)c(N)c3c(=O)c(C(=O)O)cn(C4CC4)c3c2F)C[C@H](C)N1 [SPARFLOXACIN]	0.064 µg/mL (≈ 0.163 µM)

What follows are compounds tested on Bordetella pertussis (assay: Antibacterial activity against quinolone-susceptible Bordetella pertussis BP106 by Etest method).
Type: functional

Compound	MIC
O=C(N[C@H](CO)[C@H](O)c1ccc([N+](=O)[O-])cc1)C(Cl)Cl [CHLORAMPHENICOL]	0.25 µg/mL (≈ 0.774 µM)
C[C@@H]1CN(c2c(F)c(N)c3c(=O)c(C(=O)O)cn(C4CC4)c3c2F)C[C@H](C)N1 [SPARFLOXACIN]	0.004 µg/mL (≈ 0.0102 µM)

Each compound was assayed on Bordetella pertussis (assay: Antibacterial activity against quinolone-susceptible Bordetella pertussis BP101 by Etest method).
Type: functional

Compound	MIC
O=C(N[C@H](CO)[C@H](O)c1ccc([N+](=O)[O-])cc1)C(Cl)Cl [CHLORAMPHENICOL]	0.25 µg/mL (≈ 0.774 µM)
C[C@@H]1CN(c2c(F)c(N)c3c(=O)c(C(=O)O)cn(C4CC4)c3c2F)C[C@H](C)N1 [SPARFLOXACIN]	0.008 µg/mL (≈ 0.0204 µM)

These compounds were tested on Bordetella pertussis (assay: Antibacterial activity against quinolone-susceptible Bordetella pertussis BP112 by Etest method).
Type: functional

Compound	MIC
O=C(N[C@H](CO)[C@H](O)c1ccc([N+](=O)[O-])cc1)C(Cl)Cl [CHLORAMPHENICOL]	0.25 µg/mL (≈ 0.774 µM)
C[C@@H]1CN(c2c(F)c(N)c3c(=O)c(C(=O)O)cn(C4CC4)c3c2F)C[C@H](C)N1 [SPARFLOXACIN]	0.004 µg/mL (≈ 0.0102 µM)

The compounds below were run on Bordetella pertussis (assay: Antibacterial activity against […] Bordetella pertussis BP58 by Etest method).
Type: functional

Compound	MIC
O=C(N[C@H](CO)[C@H](O)c1ccc([N+](=O)[O-])cc1)C(Cl)Cl [CHLORAMPHENICOL]	0.5 µg/mL (≈ 1.55 µM)
C[C@@H]1CN(c2c(F)c(N)c3c(=O)c(C(=O)O)cn(C4CC4)c3c2F)C[C@H](C)N1 [SPARFLOXACIN]	0.125 µg/mL (≈ 0.319 µM)

These compounds were tested on Bordetella pertussis (assay: Antibacterial activity against […] Bordetella pertussis BP121 by Etest method).
Type: functional

Compound	MIC
O=C(N[C@H](CO)[C@H](O)c1ccc([N+](=O)[O-])cc1)C(Cl)Cl [CHLORAMPHENICOL]	0.25 µg/mL (≈ 0.774 µM)
C[C@@H]1CN(c2c(F)c(N)c3c(=O)c(C(=O)O)cn(C4CC4)c3c2F)C[C@H](C)N1 [SPARFLOXACIN]	0.064 µg/mL (≈ 0.163 µM)

Each compound was assayed on Bordetella pertussis (assay: Antibacterial activity against […] Bordetella pertussis BP117 by Etest method).
Type: functional

Compound	MIC
O=C(N[C@H](CO)[C@H](O)c1ccc([N+](=O)[O-])cc1)C(Cl)Cl [CHLORAMPHENICOL]	0.25 µg/mL (≈ 0.774 µM)
C[C@@H]1CN(c2c(F)c(N)c3c(=O)c(C(=O)O)cn(C4CC4)c3c2F)C[C@H](C)N1 [SPARFLOXACIN]	0.064 µg/mL (≈ 0.163 µM)

These compounds were tested on Bordetella pertussis (assay: Antibacterial activity against quinolone-susceptible Bordetella pertussis BP113 by Etest method).
Type: functional

Compound	MIC
O=C(N[C@H](CO)[C@H](O)c1ccc([N+](=O)[O-])cc1)C(Cl)Cl [CHLORAMPHENICOL]	0.5 µg/mL (≈ 1.55 µM)
C[C@@H]1CN(c2c(F)c(N)c3c(=O)c(C(=O)O)cn(C4CC4)c3c2F)C[C@H](C)N1 [SPARFLOXACIN]	0.004 µg/mL (≈ 0.0102 µM)

Each compound was assayed on Bordetella pertussis (assay: Antibacterial activity against quinolone-susceptible Bordetella pertussis CCUG 30837 by Etest method).
Type: functional

Compound	MIC
O=C(N[C@H](CO)[C@H](O)c1ccc([N+](=O)[O-])cc1)C(Cl)Cl [CHLORAMPHENICOL]	0.5 µg/mL (≈ 1.55 µM)
C[C@@H]1CN(c2c(F)c(N)c3c(=O)c(C(=O)O)cn(C4CC4)c3c2F)C[C@H](C)N1 [SPARFLOXACIN]	0.016 µg/mL (≈ 0.0408 µM)

What follows are compounds tested on Bordetella pertussis (assay: Antibacterial activity against […] Bordetella pertussis BP99 by Etest method).
Type: functional

Compound	MIC
O=C(N[C@H](CO)[C@H](O)c1ccc([N+](=O)[O-])cc1)C(Cl)Cl [CHLORAMPHENICOL]	0.25 µg/mL (≈ 0.774 µM)
C[C@@H]1CN(c2c(F)c(N)c3c(=O)c(C(=O)O)cn(C4CC4)c3c2F)C[C@H](C)N1 [SPARFLOXACIN]	0.032 µg/mL (≈ 0.0815 µM)

These compounds were tested on Bordetella pertussis (assay: Antibacterial activity against […] Bordetella pertussis BP122 by Etest method).
Type: functional

Compound	MIC
O=C(N[C@H](CO)[C@H](O)c1ccc([N+](=O)[O-])cc1)C(Cl)Cl [CHLORAMPHENICOL]	0.25 µg/mL (≈ 0.774 µM)
C[C@@H]1CN(c2c(F)c(N)c3c(=O)c(C(=O)O)cn(C4CC4)c3c2F)C[C@H](C)N1 [SPARFLOXACIN]	0.064 µg/mL (≈ 0.163 µM)
